The text below walks through data of PMC8294059, “Identification and Immune Assessment of T Cell Epitopes in Five Plasmodium falciparum Blood Stage Antigens to Facilitate Vaccine Candidate Selection and Optimization” (Frontiers in Immunology, 2021).

The IC50 is the concentration that gives 50% inhibition.

Holding throughout (assay): biochemical
Holding throughout (assay type): binding

The target of assay [1] is HLA-DRB1*1101 (Homo sapiens, UniProt P01903+P01911, A100R/A169T/A87E/I96F/K41T/L162R/M171V/P40S/Q125H/Q178H/Q39Y/Q99D/R42S/S66Y/T262R/V115G/W38E). As to conditions: binding inhibition assay; NB = non-binder (no dose-dependent inhibition); read-out: DRB1*1101 IC50. On the procedure:
(§1) The binding assay conducted by EpiVax yields an indirect measure of peptide-MHC affinity as it utilizes a competition assay format per the methodology described in Steere et al. ([35]). […] Post incubation, the mixtures are moved to a 96-well plate coated with anti-HLA-DR antibody to capture HLA-peptide complexes. Time-resolved fluorescence measurement of the bound labeled reference peptide complex present in each mixture is detected with a europium-linked probe via fluorescent spectrophotometry using a SpectraMax M5 system. HLA binding affinity of each test peptide is expressed as the percent inhibition of reference peptide binding. Percent inhibition values (across the test peptide titration range) are used to calculate the half maximal inhibitory concentration (IC50) of each test peptide. For these studies, test peptides were assessed using a range of final concentrations from 100,000 nM to 100 nM. The panel of commercially-available HLA-DRB1 allele monomers used includes: *0101, *0301, *0401, *0701, *0801, *1101, *1301 and *1501. EpiVax established HLA-DRB1 binding affinity cutoffs were used to rank the IC50 values.
(§2) In vitro HLA binding assays (step 2 of workflow shown in Figure 1 ) were carried out with the synthesized peptides to verify the EpiMatrix outputs and provide a measure of accuracy for comparing in silico-predicted HLA-DRB1 allele binding to laboratory assessments of HLA-DRB1 allele binding. These assessments were conducted using a competition assay format whereby IC50 values were calculated based on the ability of the test peptide to compete with a labeled, high binding affinity reference peptide for HLA-DRB1 molecule binding. Sequences for the high affinity reference peptides and the negative control peptide, known not to bind any of the HLA-DRB1 molecules, are provided in Table S18 .

Assay [2] concerns the target HLA-DRB1*1301 (Homo sapiens, UniProt P01903+P01911, A100E/A169T/K41T/L162R/M171V/P40S/Q125H/Q178H/Q39Y/Q99D/R42S/S66N/T262R/W38E/Y61H). The following applies: binding inhibition assay; NB = non-binder (no dose-dependent inhibition); read-out: DRB1*1301 IC50. On the procedure: as §1, §2
The target in assay [3] is HLA-DRB1*0801 (Homo sapiens, UniProt P01903+P01911, A100R/A103L/A169T/D86S/F76Y/H45Y/I96F/K41T/L162R/M171V/P40S/Q125H/Q178H/Q39Y/Q99D/R218S/R42G/S66Y/V115G/W38E). The following applies: binding inhibition assay; NB = non-binder (no dose-dependent inhibition); read-out: DRB1*0801 IC50. On the procedure: as §1, §2
For assay [4], the target named is HLA-DRB1*0701 (Homo sapiens, UniProt P01903+P01911, A100R/A102G/A103Q/D57E/D86V/E43K/F76Y/K127E/L162R/M171V/P40G/Q125H/Q99D/R33Q/R42Y/R54Q/S133A/S66F/T210M/V115G/Y107V/Y59L/Y89S). As to conditions: binding inhibition assay; NB = non-binder (no dose-dependent inhibition); read-out: DRB1*0701 IC50. On the procedure:
as §1, §2

Assay [5] concerns the target T1, HLA-DRB1*1501 (Homo sapiens, UniProt P01903+P01911).
T1 construct: purchased
The following applies: binding inhibition assay; NB = non-binder (no dose-dependent inhibition); read-out: DRB1*1501 IC50. On the procedure:
as §1, §2

For assay [6], the target named is T2, HLA-DRB1*0101 (Homo sapiens, UniProt P01903+P01911, A100R/D57E/F55L/F60I/F76Y/I96L/L162R/M171V/P40L/Q125E/R42F/V115G/Y59C).
T2 construct: purchased
As to conditions: binding inhibition assay; NB = non-binder (no dose-dependent inhibition); read-out: DRB1*0101 IC50. On the procedure:
as §1, §2

The target in assay [7] is T3, HLA-DRB1*0401 (Homo sapiens, UniProt P01903+P01911, A100K/A169T/F76Y/I96L/K127E/L162R/M171V/N62H/P40V/Q125Y/R42H/S133A/S149N/S66Y/V115G/V209L/W38E).
T3 construct: purchased
The following applies: binding inhibition assay; NB = non-binder (no dose-dependent inhibition); read-out: DRB1*0401 IC50. On the procedure: as §1, §2

SMILES strings stand for the structures. Where a SMILES comes first, the peptide text is derived from it.

Chain of HLA-DRB1*1101 (P01903 26-254 limits assumed, other chains not shown): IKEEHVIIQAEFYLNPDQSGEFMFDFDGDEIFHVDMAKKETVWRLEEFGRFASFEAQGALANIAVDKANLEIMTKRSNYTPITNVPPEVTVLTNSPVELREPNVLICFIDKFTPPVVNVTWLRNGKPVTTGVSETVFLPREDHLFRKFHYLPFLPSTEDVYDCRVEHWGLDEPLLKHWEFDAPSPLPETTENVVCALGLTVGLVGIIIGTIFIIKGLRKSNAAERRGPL

Consider `CC[C@H](C)[C@H](NC(=O)[C@H](CS)NC(=O)[C@H](CCCCN)NC(=O)CNC(=O)[C@H](Cc1ccc(O)cc1)NC(=O)[C@@H](NC(=O)[C@H](CO)NC(=O)[C@H](CO)NC(=O)[C@H](CCCCN)NC(=O)[C@H](Cc1c[nH]cn1)NC(=O)[C@H](Cc1ccc(O)cc1)NC(=O)[C@@H](NC(=O)[C@H](CO)NC(=O)[C@H](CC(N)=O)NC(=O)[C@H](Cc1ccc(O)cc1)NC(=O)[C@H](CO)NC(=O)[C@H](CC(C)C)NC(=O)[C@H](Cc1c[nH]cn1)NC(C)=O)[C@@H](C)CC)[C@@H](C)O)C(=O)N[C@@H](C)C(N)=O` [RH5_006B] (Ac-HLSYNSIYHKSSTYGKCIA-NH2), for which the IC50 in assay [1] is 834 nM; in assay [2] it was 29300 nM; in assay [3], 18900 nM; in assay [4], 19800 nM; in assay [5] it was 7800 nM; in assay [6], 1350 nM. In assay [7], the IC50 came to 2910 nM.

As to `CC[C@H](C)[C@H](NC(=O)[C@H](CCCNC(=N)N)NC(=O)[C@H](CO)NC(=O)[C@@H](NC(=O)[C@H](CCCNC(=N)N)NC(=O)[C@@H](NC(=O)[C@H](C)NC(=O)[C@H](CC(N)=O)NC(=O)[C@@H](NC(=O)[C@@H]1CCCN1C(=O)[C@@H](NC(=O)[C@H](Cc1ccc(O)cc1)NC(=O)[C@H](CCCCN)NC(=O)[C@H](CC(N)=O)NC(=O)[C@H](CCC(N)=O)NC(=O)[C@H](CCCCN)NC(C)=O)C(C)C)[C@@H](C)CC)C(C)C)C(C)C)C(=O)N[C@@H](CC(C)C)C(=O)N[C@@H](CO)C(=O)N[C@@H](Cc1ccccc1)C(=O)N[C@@H](CC(C)C)C(=O)N[C@@H](CC(=O)O)C(=O)N[C@@H](CO)C(N)=O` [EBA175_004] (Ac-KQNKYVPINAVRVSRILSFLDS-NH2), the 50% inhibitory concentration (IC50) in assay [1] is 396 nM; in assay [2] it was 1360 nM; in assay [3], 6120 nM; in assay [4] it was 18 nM; in assay [5], 2070 nM; in assay [6], 4 nM. Also, the IC50 in assay [7] was 18200 nM.

Regarding `CC[C@H](C)[C@H](NC(=O)[C@H](CO)NC(=O)[C@@H](NC(=O)[C@@H]1CCCN1C(=O)[C@@H](NC(=O)[C@H](CC(=O)O)NC(C)=O)C(C)C)[C@@H](C)CC)C(=O)N[C@H](C(=O)N[C@@H](CCCNC(=N)N)C(=O)N[C@@H](CC(N)=O)C(=O)N[C@@H](CC(N)=O)C(=O)N[C@@H](CCC(=O)O)C(=O)N[C@@H](CCC(N)=O)C(=O)N[C@H](C(=O)N[C@@H](CO)C(=O)N[C@@H](CCC(N)=O)C(=O)N[C@@H](CCC(=O)O)C(=O)N[C@@H](C)C(N)=O)[C@@H](C)O)[C@@H](C)CC` [EBA175_014] (Ac-DVPISIIRNNEQTSQEA-NH2), the 50% inhibitory concentration (IC50) stood at 16700 nM in assay [1]; 14100 nM in assay [2]; 18700 nM in assay [3]; 13300 nM in assay [4]; 3090 nM in assay [5]; 6150 nM in assay [6]. Also, the IC50 in assay [7] is 3810 nM.

For `CC[C@H](C)[C@H](NC(=O)[C@H](CC(=O)O)NC(=O)[C@H](Cc1ccc(O)cc1)NC(=O)[C@H](CCC(=O)O)NC(=O)[C@H](CC(N)=O)NC(=O)[C@H](CCCNC(=N)N)NC(=O)[C@H](C)NC(=O)[C@H](CCCCN)NC(=O)[C@H](C)NC(=O)[C@H](Cc1ccccc1)NC(=O)[C@H](Cc1ccc(O)cc1)NC(=O)[C@H](CC(C)C)NC(=O)[C@@H](NC(=O)[C@H](Cc1ccccc1)NC(=O)[C@H](Cc1ccccc1)NC(=O)[C@H](CO)NC(=O)[C@H](C)NC(C)=O)C(C)C)C(=O)N[C@@H](CCCCN)C(N)=O` [EBA175_001B] (Ac-ASFFVLYFAKARNEYDIK-NH2), the IC50 in assay [1] was determined as 520 nM; in assay [2], 2240 nM; in assay [3], 9880 nM; in assay [4], 421 nM; in assay [5], 265 nM; in assay [6], 678 nM. Also, the IC50 in assay [7] is 2270 nM.

Turning to `CC(=O)N[C@@H](Cc1ccccc1)C(=O)N[C@@H](CCC(N)=O)C(=O)N[C@@H](CC(N)=O)C(=O)N[C@@H](Cc1ccc(O)cc1)C(=O)N[C@H](C(=O)N[C@@H](Cc1ccc(O)cc1)C(=O)N[C@@H](CC(C)C)C(=O)N[C@@H](CO)C(=O)N[C@@H](CCCCN)C(=O)N[C@@H](CC(N)=O)C(=O)N[C@H](C(=O)N[C@H](C(=O)N[C@@H](CC(=O)O)C(=O)N[C@@H](CC(N)=O)C(=O)N[C@@H](Cc1c[nH]c2ccccc12)C(=O)N[C@@H](CCC(=O)O)C(N)=O)C(C)C)C(C)C)[C@@H](C)O` [AMA1_004] (Ac-FQNYTYLSKNVVDNWE-NH2), the IC50 in assay [1] was found to be 567 nM; in assay [2] it was 70000 nM; in assay [3], 10 nM; in assay [4] it was 9480 nM; in assay [5], 248 nM; in assay [6] it was 16 nM. Further, the IC50 in assay [7] was determined as 9690 nM.

On to `CC[C@H](C)[C@H](NC(=O)[C@H](CC(N)=O)NC(=O)[C@H](CC(N)=O)NC(=O)[C@H](CC(C)C)NC(=O)[C@H](Cc1c[nH]cn1)NC(=O)[C@H](CCCCN)NC(C)=O)C(=O)N[C@@H](Cc1ccccc1)C(=O)N[C@@H](Cc1c[nH]cn1)C(=O)N[C@@H](Cc1c[nH]cn1)C(=O)N[C@@H](CC(C)C)C(=O)N[C@H](C(=O)N[C@@H](Cc1ccc(O)cc1)C(=O)N[C@H](C(=O)N[C@@H](CC(C)C)C(=O)N[C@@H](CCC(N)=O)C(=O)N[C@@H](CCSC)C(=O)N[C@@H](CCCCN)C(N)=O)C(C)C)[C@@H](C)CC` [RH5_012] (Ac-KHLNNIFHHLIYVLQMK-NH2), for which the IC50 in assay [1] was found to be 33900 nM; in assay [2], 8830 nM; in assay [3] it was 91700 nM; in assay [4], 24200 nM; in assay [5] it was 7710 nM; in assay [6] it was 25 nM. The IC50 in assay [7] stood at 7230 nM.

Regarding `CC[C@H](C)[C@H](NC(=O)[C@H](Cc1ccc(O)cc1)NC(=O)[C@@H](NC(=O)[C@H](Cc1ccc(O)cc1)NC(=O)[C@H](CO)NC(=O)CNC(=O)[C@H](CCSC)NC(=O)[C@H](CCCCN)NC(=O)[C@H](CCCCN)NC(=O)[C@H](CC(N)=O)NC(=O)[C@H](CC(C)C)NC(=O)[C@H](CC(N)=O)NC(=O)[C@@H](NC(=O)[C@H](CC(C)C)NC(=O)[C@H](CC(C)C)NC(=O)[C@H](CC(C)C)NC(=O)[C@H](CCC(=O)O)NC(=O)[C@@H](N)CO)[C@@H](C)O)[C@@H](C)CC)C(N)=O` [RH5_010B] (H-SELLLTNLNKKMGSYIYI-NH2), the IC50 in assay [1] stood at 204 nM; in assay [2], 9340 nM; in assay [3] it was 6460 nM; in assay [4] it was 41500 nM; in assay [5], 9970 nM; in assay [6], 77 nM. For the same compound, in assay [7], the IC50 turned out to be 84000 nM.

For `CC[C@H](C)[C@H](NC(=O)[C@H](CCSC)NC(=O)[C@H](Cc1ccc(O)cc1)NC(=O)[C@@H](NC(=O)[C@H](Cc1ccccc1)NC(=O)[C@H](CCC(=O)O)NC(=O)[C@H](Cc1ccccc1)NC(=O)[C@H](C)N)[C@@H](C)O)C(=O)N[C@@H](CC(N)=O)C(=O)N[C@@H](Cc1ccccc1)C(=O)NCC(=O)N[C@@H](CCCNC(=N)N)C(=O)NCC(=O)N[C@@H](CCC(N)=O)C(=O)N[C@@H](CC(N)=O)C(=O)N[C@@H](Cc1ccc(O)cc1)C(=O)N[C@@H](Cc1c[nH]c2ccccc12)C(=O)N[C@@H](CCC(=O)O)C(N)=O` [AMA1_002] (H-AFEFTYMINFGRGQNYWE-NH2), the IC50 in assay [1] stood at 236 nM; in assay [2] it was 723 nM; in assay [3], 239 nM; in assay [4] it was 113 nM; in assay [5], 76 nM; in assay [6] it was 117 nM. Further, the IC50 in assay [7] worked out at 45 nM.
